Here are results for two molecules from patent US9364564B2, “Pre-mixed, ready-to-use pharmaceutical compositions” (EKR Therapeutics, Inc., priority 2006, dated 2016).

For series [1] the following is noted: cited from earlier work.
Series [2] in a line: Effect of plastic film composition (IV bag type) on stability at 40° C. The settings on record: bags containing PVC (VIAFLEX, INTRAVIA), 0.2 mg/mL non-sorbitol dextrose formulation. Format: physicochemical. The protocol: The effect of plastic film composition on the stability of ready to use premixed compositions comprising 0.2 mg/mL nicardipine HCl, 0.2 mM citrate, 5% dextrose, pH 4.0-4.2 for “incompatible” bags and “compatible” bags is shown in FIGS. 5A and 5B respectively. “Incompatible” bags contain polar polymers, such as polyvinyl chloride (PVC) and ethylene vinyl acetate (EVA). […] Stability evaluations were done for the 0.2 mg/mL non-sorbitol dextrose formulation in various commercially available IV infusion bag systems. […]®, and VISIV® bags were rinsed in water and covered with aluminum foil over pouches. The bags were filled with the above formulation and autoclaved at 105° C. for 21 minutes. […]®71 and GALAXY® bags were aseptically filled with the above formulation. Stability assessments were done by measuring the % drug remaining and total impurity formation (data not shown) as a function of time using RP-HPLC for samples incubated for up to 24 weeks at 40° C. The % drug remaining was calculated relative to the concentration measured post-mixing in tank.

For series [3] the following is noted: weak base; cited from earlier work.
Series [4] is described as follows: Stability of concentrated ampul product after dilution with intravenous infusion fluids. It is filed as physicochemical. Particulars: diluted to 0.1 mg/ml in IV bag, 24 hours, final pH above 4.5. The protocol: Stability results for the concentrated ampul product diluted to 0.1 mg/ml with various commonly used intravenous infusion fluids in an IV bag are shown in FIG. 1. pH after mixing was measured and is reported on the X-axis. Product stability was measured by monitoring the % drug remaining after duration of 24 hours by RP-HPLC and is shown on the Y-axis.

Structures are written as SMILES. Counter-ions that a name gives are not always drawn.

For `COC(=O)C1=C(C)NC(C)=C(C(=O)OCCN(C)Cc2ccccc2)C1c1cccc([N+](=O)[O-])c1` (stereo not shown) [Nicardipine, nicardipine], the solubility in water entry in series [1] is given as “only slightly soluble”.

A word on the pKa: it is the negative logarithm of the acid dissociation constant. Consider `COC(=O)C1=C(C)NC(C)=C(C(=O)OCCN(C)Cc2ccccc2)C1c1cccc([N+](=O)[O-])c1` (racemic) [nicardipine HCl, (±)-2-(benzyl-methylamino) ethyl methyl 1,4-dihydro-2,6-dimethyl-4-(m-nitrophenyl)-3,5-pyridinedicarboxylate monohydrochloride], for which the “loss in product potency upon storage” value in series [2] was “Significant loss in product potency”. For the same molecule, the pKa in series [3] is recorded as approximately 7.2. Moreover, the “drug loss post dilution” value in series [4] is “very pronounced drug loss”.
